Where a name gives a salt, the structure may show the parent alone. Read-outs that look alike come from different tables or passages of the source. Blank lines part the entries; values can stand above or below the molecule they belong to.
Tests used:
[1] = for Pi binding (FIG. 1): 24 hours; for Observed in vitro Pi Binding, %: inventor's experiments, mean of triplicate determinations
Experimental: The pH of each solution was adjusted to the desired value by the addition of concentrated hydrochloric acid or sodium hydroxide, as appropriate.
An HPLC method with conductivity detection was developed and validated for use in the determination of succinate, acetate and phosphate. The separation was performed on a Dionex AS11 […] HPLC column integrated with an Agilent Series 1100 HPLC system, and detection of the anionic species was enabled using a Dionex ED50 Electrochemical Detector, operating in Conductivity Mode. Limits of Detection and Quantitation were enhanced through the use of a Dionex Anion Self-Regenerating Suppressor. After assay-specific development and verification of assay performance were completed, the analysis of phosphate and succinate or acetate was performed by sampling the test solution and diluting it, if necessary, to a concentration within the linear range of the Assay. The sample was then injected onto the HPLC column and eluted with a sodium hydroxide gradient. Data were acquired using Agilent ChemStation® software.
Experimental Methods: Experiments were completed in triplicate in which 2.77 g of Na2HPO4.7 H2O (equivalent to 320 mg of elemental phosphorus) was dissolved in 570 mL of deionized water. The test or control binder was dissolved in deionized water to a volume of 30 mL. The binder solution was added to the phosphorus solution to give a final volume of 600 mL. For each binder study, the phosphorus solutions were titrated by addition of dilute HCl or dilute NaOH to five different initial pH levels: 4, 5, 6, 7, and 8. (These solution pH's span the pH range of the gastrointestinal tract.) Then the beakers containing the solutions were covered with plastic wrap and placed on a stir plate that agitated the solution at ˜20 cycles per minute overnight. This stirring rate has been selected because in vitro antacid activity at such low stirring rates has been reported to correlate well with in vivo antacid activity in the stomach. Samples for ion chromatographic assay of solution phosphate (Pi) were taken at 24 hours post-mixing (the maximum time available for phosphorus binding that has been reported in related in vivo studies). The decrease in phosphorus concentration from the original concentration in the phosphorus solution to that of the filtrate represents the bound phosphorus.

[2] = Sheikh et al. 1989, cited from earlier work
[3] = healthy human subjects, anticipated
From the text: Net calcium absorption will be measured by a validated method, such as the one described in detail by Bo-Linn, G. W. et al., Journal of Clinical Investigation, 73: 640-647 (1984). The procedure that will be followed is described below.
On each day, subjects will be prepared by a mannitol-electrolyte gastrointestinal lavage, in order to cleanse the gastrointestinal tract. […] Then each subject will eat a test meal of 80 g ground sirloin steak, 100 g French fried potatoes, 30 g Swiss cheese and 250 mL water containing 10 g of polyethylene glycol (PEG3500) as a non-absorbable marker. After the meal, each subject will consume 25 mEq of calcium, in the same form as will have been consumed prior to the meal, or additional placebo, with 100 mL of water. Duplicate meals will be prepared (one for consumption and one to be analyzed for calcium and phosphorus). The duplicate meals will be analyzed for calcium and phosphorus and are expected to contain about 350 mg of phosphorus and about 215 mg of calcium. […]
Ten hours after a meal, a second lavage will be begun, using the procedure described above. […] All urine voided during the 10-hour period will be collected and analyzed for phosphorus and calcium. Rectal effluent will be collected, pooled with any stool passed during the 10-hour period and analyzed for phosphorus and calcium. Absorption will be calculated according to the following equation: […]

Molecule: CC(=O)[O-].CC(=O)[O-].[Ca+2] [Calcium Acetate, calcium acetate]
Pi binding (FIG. 1) ([1]; pH 4): 100% | Observed in vitro Pi Binding, % ([1]; pH 4.0): 58.6% | Pi binding (FIG. 1) ([1]; pH 5): 92% | Pi binding (FIG. 1) ([1]; pH 6): 100% | Observed in vitro Pi Binding, % ([1]; pH 6.0): 93.8% | Pi binding (FIG. 1) ([1]; pH 7): 100% | Pi binding (FIG. 1) ([1]; pH 8): 100%

Molecule: O=C([O-])[O-].[Ca+2] [Calcium Carbonate, calcium carbonate]
Observed in vitro Pi Binding, % ([2]; pH 6.0): 90%

Molecule: O=C([O-])CC(O)(CC(=O)[O-])C(=O)[O-].O=C([O-])CC(O)(CC(=O)[O-])C(=O)[O-].[Ca+2].[Ca+2].[Ca+2] [Calcium Citrate, calcium citrate]
Observed in vitro Pi Binding, % ([2]; pH 6.0): 10% | Observed in vitro Pi Binding, % ([2]; pH 6.5): 20% at pH 6.5 (NOTE 2)

Molecule: CC(O)C(=O)[O-].CC(O)C(=O)[O-].[Ca+2] (centres unmarked) [Calcium Lactate, calcium lactate]
Observed in vitro Pi Binding, % ([2]; pH 6.0): 90%

Pi binding compared with calcium acetate (FIG. 1) ([1]; each pH value in the range from pH 4 to 8): matches or exceeds | Observed in vitro Pi Binding, % ([1]; pH 4.0): 59.4% | Observed in vitro Pi Binding, % ([1]; pH 6.0): 94.0%
Molecule: O=C(O)CCC(=O)O [Calcium Succinate, butanedioic acid calcium salt]
dietary phosphorus absorbed from the GI tract ([3]; ingested close in time to test meal): about 20% | change in the percentage of dietary calcium absorbed from the GI tract ([3]; versus placebo day): less than 10%

Molecule: calcium gluconate
Observed in vitro Pi Binding, % ([2]; pH 6.0): 90%
